The source of these data is US20230165869A1, “DIAZINE AND TRIAZINE COMPOUNDS TO TREAT CYTOKINE STORM SYNDROME” (UNIVERSITY OF GREENWICH, priority 2020, published 2023).

The subject of one data set is Interleukin-1β. The data set can be described thus: Interleukin-1β secretion from LPS-stimulated PBMCs. The class given is cell-based. As to conditions: stimulated human PBMCs, result in words. The method, then:
(§1) The compounds of Formula (I) may be investigated for inhibition of pro-inflammatory cytokines Interleukin (IL)-[…], 6,8 and 17A, Interferon (IFN)-gamma and Tumour necrosis factor (TNF)-α in peripheral blood mononuclear cells (PBMCs) isolated from fresh human buffy coats by centrifugation on Lymphoprep™ (Stemcell Technologies). All human cells are grown in cell culture medium RPMI-1640 supplemented with 1% penicillin/streptomycin and 5% heat inactivated fetal bovine serum.
(§2) PBMCs stimulated with LPS (Salmonella enterica serotype typhimurium) are incubated for 24 hours containing the compounds under investigation, reconstituted in dimethyl sulfoxide (DMSO). The secreted levels of Interleukin-1β and Interleukin-6 are measured in the cell culture supernatant using a cytometric bead array and the cell viability is quantified using Trypan blue.

The test system of another data set is Interleukin-6. The data set can be described thus: Interleukin-6 secretion from LPS-stimulated PBMCs. The class given is cell-based. As to conditions: stimulated human PBMCs, result in words. As to the method: as §1, §2
The subject of the next data set is Interleukin-8. The data set can be described thus: Interleukin-8 secretion from PBMCs stimulated with TNF-α and IL-17A. The settings on record: stimulated human PBMCs, result in words. Type of data set: cell-based. The method, then:
as §1
PBMCs stimulated with a mixture between TNF-α and IL-17A are incubated for 24 hours whilst containing the compounds under investigation, reconstituted in DMSO. The secreted levels of Interleukin-8 are measured in the cell culture supernatant using a cytometric bead array and the cell viability is quantified using Trypan blue.

In the next data set the test system is Interleukin-17A. The data set can be described thus: Interleukin-17A secretion from PMA/ionomycin-stimulated PBMCs. The class given is cell-based, human. As to conditions: for inhibition of IL-17 / IL-17A: stimulated human PBMCs, result in words. The method, then:
as §1
(§3) PBMCs stimulated with PMA/ionomycin are incubated for 24 hours containing the compounds under investigation, reconstituted in DMSO. The secreted levels of Interleukin-17A are measured in the cell culture supernatant using a cytometric bead array and the cell viability is quantified using Trypan blue.
(§4) 3,5-Diamino-6-(diphenylmethyl)-1,2,4-triazine was also investigated for […] inhibition in a human PBMC model: […]

The test system of a further data set is Interferon-gamma. The data set can be described thus: Interferon-gamma secretion from PMA/ionomycin-stimulated PBMCs. The class given is cell-based. The settings on record: stimulated human PBMCs, result in words. As to the method: as §1
(§5) PBMCs stimulated with PMA/ionomycin are incubated for 24 hours containing the compounds under investigation, reconstituted in DMSO. The secreted levels of Interferon-gamma and Tumour necrosis factor-α are measured in the cell culture supernatant using a Human Quantikine ELISA Kit and the cell viability is quantified using Trypan blue.

The subject of another data set is Tumour necrosis factor-α. The data set can be described thus: Tumour necrosis factor-α secretion from PMA/ionomycin-stimulated PBMCs. The class given is cell-based. The settings on record: stimulated human PBMCs, result in words. The method, then: as §1, §5
A further data set concerns IL-2. The data set can be described thus: IL-2 release from stimulated CD4-positive T cells. Type of data set: cell-based, human. As to the method:
(§6) The compounds may be investigated for inhibition of pro-inflammatory cytokines Interleukin-2, 4 and 13 in human CD4-positive T cells isolated from fresh isolated PBMCS using a CD4-positive T cell isolation kit.
(§7) CD4-positive T cells stimulated with beads coated with antibodies against CD2, CD3 and CD28 are incubated for 48 hours containing the compounds under investigation, reconstituted in DMSO. The secreted levels of Interleukin-2, 4 and 13 are measured in the cell culture supernatant using a cytometric bead array and the cell viability is measured using an MTT (3-(4,5-dimethylthiazol-2-yl)-2,5-diphenyltetrazolium bromide) assay.
(§8) Secreted IL-4 levels may be measured using electrochemiluminescence (MSD kits, Meso Scale Discovery), while secreted IL-2 levels may be measured using proximity homogenous time-resolved fluorescence (HTRF) and the amount of living cells may be measured by addition of resazurin (PrestoBlue®).

A further data set concerns IL-4. The data set can be described thus: IL-4 release from stimulated CD4-positive T cells. Type of data set: cell-based, human. The method, then:
as §6, §7, §8

The next data set concerns T cell. The data set can be described thus: T cell proliferation in the IL-2/IL-4 inhibition assays. The class given is cell-based, human. As to the method: as §6, §7, §8
Data set [1] can be described thus: PBMC viability in the IL-17A human PBMC model. The settings on record: PBMCs stimulated with PMA/ionomycin; human PBMC model, maximum effect; read-out: Inhibition of PMBC viability, Max effect. The class given is cell-based. The method, then:
as §3, §4

The subject of a further data set is PBMC. The data set can be described thus: PBMC viability in the IL-17A human PBMC model. Type of data set: cell-based. As to conditions: Homo sapiens, PBMC. The method, then:
as §3, §4

Read-outs that look alike come from different tables or passages of the source. Bounds are passed on as bounds.

Take `Nc1nnc(C(c2ccccc2)c2ccccc2)c(N)n1` [Compound 2, 3,5-Diamino-6-(diphenylmethyl)-1,2,4-triazine]: the “inhibition of IL-1β” value in the data set on Interleukin-1β is recorded as “moderate inhibition”. Also, in the data set on Interleukin-6, the “inhibition of IL-6” value was “moderate inhibition”. For the same molecule, the “inhibition of IL-8” value in the data set with Interleukin-8 is “high inhibition”. In addition, the EC50 in the data set with Interleukin-17A (human PBMC model, absolute EC50, read-out: Inhibition of IL-17A release, Abs EC50) came out at 317 nM; in the data set with Interleukin-17A (human PBMC model, relative EC50, read-out: Inhibition of IL-17A release, Rel EC50) it was 261 nM; with IL-2 (Homo sapiens, CD4 positive, absolute EC50, read-out: Inhibition of IL-2 release, Abs EC50), 15 nM; in the data set with IL-2 (Homo sapiens, CD4 positive, relative EC50, read-out: Inhibition of IL-2 release, Rel EC50), 28 nM; in the data set on IL-4 (Homo sapiens, CD4 positive, absolute EC50, read-out: Inhibition of IL-4 release, Abs EC50), 61.3 nM; in the data set on IL-4 (Homo sapiens, CD4 positive, relative EC50, read-out: Inhibition of IL-4 release, Rel EC50), 50.5 nM. Moreover, the EC50 was 58.4 nM in the data set with IL-4 (relative EC50, read-out: Inhibition of IL-4 release, Rel EC50); > 10000 nM with T cell (Homo sapiens, T-cell, absolute EC50, read-out: Inhibition of T cell proliferation, Abs EC50); > 10000 nM in the data set on T cell (Homo sapiens, T-cell, relative EC50, read-out: Inhibition of T cell proliferation, Rel EC50); > 10000 nM in the data set with PBMC (read-out: Inhibition of PMBC viability, Abs EC50); 44000 nM with PBMC (read-out: Inhibition of PMBC viability, Rel EC50). Besides, the Emax in the data set with Interleukin-17A (human PBMC model, maximum effect, read-out: Inhibition of IL-17A release, Max effect) came out at 86%; in the data set on IL-2 (Homo sapiens, CD4 positive, maximum effect, read-out: Inhibition of IL-2 release, Max Effect), 97%; with IL-4 (Homo sapiens, CD4 positive, maximum effect, read-out: Inhibition of IL-4 release, Max Effect) it was 99%; with T cell (Homo sapiens, T-cell, maximum effect, read-out: Inhibition of T cell proliferation, Max Effect), 28%. The “inhibition of IL-17 / IL-17A” value in the data set with Interleukin-17A was “high inhibition”. In addition, the “inhibition of IFN-γ” value in the data set with Interferon-gamma is recorded as “high inhibition”. Moreover, the “inhibition of TNF-α” value in the data set with Tumour necrosis factor-α (at the top concentration) is given as “high inhibition”. In addition, in the data set with IL-2 (result in words), the “inhibition of IL-2” value is given as “good level of inhibition”. In the data set with IL-4 (result in words), the “inhibition of IL-4” value is reported as “good level of inhibition”. In addition, the “inhibition of T cell proliferation” value in the data set on T cell (result in words) is “without significant inhibition”. For the same molecule, the cytotoxicity at 24 h in [1] was determined as 38%.
For `Nc1nnc(-c2sc(Cl)c(Cl)c2Cl)c(N)n1` [Compound 1, 3,5-diamino-6-[2-(3,4,5-trichlorothienyl)]-1,2,4-triazine], the “inhibition of IL-1β” value in the data set on Interleukin-1β was “high inhibition”. In the data set on Interleukin-6, the “inhibition of IL-6” value was “high inhibition”. Also, the “inhibition of IL-8” value with Interleukin-8 is recorded as “high inhibition”. Further, the “inhibition of IL-17 / IL-17A” value with Interleukin-17A is reported as “moderate inhibition”. The “inhibition of IFN-γ” value in the data set on Interferon-gamma is “high inhibition”. Also, the “inhibition of TNF-α” value in the data set on Tumour necrosis factor-α is “high inhibition”.
